Values quoted from earlier work, collected in US20080241117A1, “Oral Care Compositions Containing a Mixed Tocopherol Component” (priority 2007, published 2008).
Read-outs that look alike come from different tables or passages of the source.

Columns and labels:
gingivitis [1] = settings: applied topically in toothpaste; humans
gingivitis [2] = settings: applied topically in toothpaste; primates
[3] = applied topically in toothpaste
[4] = system: prostaglandin E2 in gingival crevicular fluid; settings: applied topically in rinse form

penetration of gum tissue [3] | Compound | effect on gingivitis (gingivitis [1]) | effect on gingivitis (gingivitis [2]) | level of prostaglandin E2 in gingival crevicular fluid [4]
penetrates gum tissue | Cc1c(C)c2c(c(C)c1O)CC[C@@](C)(CCC[C@H](C)CCC[C@H](C)CCCC(C)C)O2 [alpha tocopherol] | fails to provide an effect on gingivitis | fails to provide an effect on gingivitis | 
 | tocopherol [vitamin E] |  |  | reduced level of prostaglandin E2
